Data taken from patent publication US8759377B2, “Substituted dioxopiperidines and dioxopyrrolidines as MGLUR4 allosteric potentiators, compositions, and methods of treating neurological dysfunction” (Vanderbilt University, priority 2009, dated 2014).
Like-named read-outs stand apart in the source and are kept apart here.

Assays:
human mGluR4 = molecular target: T1, human mGluR4 (Homo sapiens, UniProt Q14833); test: human mGluR4 potentiation, Ca2+-sensitive dye fluorescence assay in transfected CHO cells; assay type: cell-based; details: for Emax: CHO, maximum extent of potentiation, human mGluR4, read-out: hGluMax; for EC50: EC50 for potentiation, human mGluR4, with EC20 concentration of agonist, read-out: hEC50
T1 construct: expressed in transfected cells; host or cells: CHO cells
T1 sequence (Q14833 33-912): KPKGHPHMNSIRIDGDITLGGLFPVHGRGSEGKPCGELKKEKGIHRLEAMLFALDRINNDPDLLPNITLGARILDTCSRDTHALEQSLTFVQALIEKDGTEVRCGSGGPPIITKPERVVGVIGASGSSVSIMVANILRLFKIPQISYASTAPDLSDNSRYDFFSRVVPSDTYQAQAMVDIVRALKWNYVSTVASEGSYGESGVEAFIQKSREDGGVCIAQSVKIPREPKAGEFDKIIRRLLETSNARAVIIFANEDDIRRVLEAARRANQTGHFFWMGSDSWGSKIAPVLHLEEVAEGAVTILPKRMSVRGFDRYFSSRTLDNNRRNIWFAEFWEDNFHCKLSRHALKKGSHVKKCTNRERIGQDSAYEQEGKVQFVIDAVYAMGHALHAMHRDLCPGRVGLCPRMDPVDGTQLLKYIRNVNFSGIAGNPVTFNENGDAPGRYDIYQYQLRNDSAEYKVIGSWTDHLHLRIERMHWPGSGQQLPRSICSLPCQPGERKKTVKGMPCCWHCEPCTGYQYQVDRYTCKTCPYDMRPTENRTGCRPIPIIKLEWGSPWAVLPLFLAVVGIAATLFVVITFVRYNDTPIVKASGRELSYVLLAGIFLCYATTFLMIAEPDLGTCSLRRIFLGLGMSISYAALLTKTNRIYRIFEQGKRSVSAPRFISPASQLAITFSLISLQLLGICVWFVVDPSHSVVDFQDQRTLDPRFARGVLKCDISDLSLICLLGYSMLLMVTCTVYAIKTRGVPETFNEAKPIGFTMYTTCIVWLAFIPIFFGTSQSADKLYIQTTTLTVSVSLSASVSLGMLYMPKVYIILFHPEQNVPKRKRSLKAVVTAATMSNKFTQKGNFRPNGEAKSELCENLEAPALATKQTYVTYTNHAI
Protocol: (§1) The disclosed compounds and compositions can be evaluated for their ability to act as a potentiator of metabotropic glutamate receptor activity, in particular mGluR4 activity, by any suitable known methodology known in the art. For example, Chinese Hamster Ovary (CHO) cells transfected with human mGluR4 or HEK cells co-transfected with rat mGluR4 and the G-protein regulated Inwardly Rectifying Potassium channel (GIRK) were plated in clear bottom assay plates for assay in a Hamamatsu FDSS Fluorometric Plate Reader. The cells were loaded with either a Ca2+-sensitive fluorescent dye or the thallium responsive dye and the plates were washed and placed into a suitable kinetic plate reader. […] Approximately two and a half minutes later, a concentration of mGluR4 orthosteric agonist (e.g. glutamate or L-AP4) eliciting approximately 20% (EC20) of the maximal agonist response was added to the cells, and the response was measured. Two minutes later, a concentration of mGluR4 agonist (e.g. glutamate or L-AP4) eliciting 80% (EC80) of the maximal agonist response was added to the cells, and the response was measured. For rat mGluR4/GIRK experiments, a baseline was established for approximately five seconds, disclosed compounds were added, and either an EC20 or EC80 concentration of agonist was added approximately two and one half minutes later.
(§2) The above described assay operated in two modes. In the first mode, a range of concentrations of the disclosed compounds are added to cells, followed by a single fixed concentration of agonist. If the compound acts as a potentiatior, an EC50 value for potentiation and a maximum extent of potentiation by the compound at this concentration of agonist is determined by non-linear curve fitting. If the compound acts as a noncompetitive antagonist, an IC50 value is determined by non-linear curve fitting. In the second mode, several fixed concentrations of the disclosed compounds are added to various wells on a plate, followed by a range in concentrations of agonist for each concentration of disclosed compound. The ECso values for the agonist at each concentration of compound are determined by non-linear curve fitting. A decrease in the EC50 value of the agonist with increasing concentrations of the sample compound (a leftward shift of the agonist concentration-response curve) is an indication of the degree of mGluR4 potentiation at a given concentration of the sample compound. A decrease in the maximal response of the agonist with increasing concentrations of the sample compounds, with or without a rightward shift in agonist potency, is an indication of the degree of noncompetitive antagonism at mGluR4. The second mode also indicates whether the sample compounds also affect the maximum response to mGluR4 to agonists.

rat mGluR4 = molecular target: T2, rat mGluR4 (Rattus norvegicus, UniProt P31423); test: rat mGluR4/GIRK potentiation, thallium responsive dye assay in co-transfected HEK cells; assay type: cell-based; details: for rGluMax: maximum extent of potentiation
T2 construct: expressed in transfected cells; host or cells: HEK cells
T2 sequence (P31423 33-912): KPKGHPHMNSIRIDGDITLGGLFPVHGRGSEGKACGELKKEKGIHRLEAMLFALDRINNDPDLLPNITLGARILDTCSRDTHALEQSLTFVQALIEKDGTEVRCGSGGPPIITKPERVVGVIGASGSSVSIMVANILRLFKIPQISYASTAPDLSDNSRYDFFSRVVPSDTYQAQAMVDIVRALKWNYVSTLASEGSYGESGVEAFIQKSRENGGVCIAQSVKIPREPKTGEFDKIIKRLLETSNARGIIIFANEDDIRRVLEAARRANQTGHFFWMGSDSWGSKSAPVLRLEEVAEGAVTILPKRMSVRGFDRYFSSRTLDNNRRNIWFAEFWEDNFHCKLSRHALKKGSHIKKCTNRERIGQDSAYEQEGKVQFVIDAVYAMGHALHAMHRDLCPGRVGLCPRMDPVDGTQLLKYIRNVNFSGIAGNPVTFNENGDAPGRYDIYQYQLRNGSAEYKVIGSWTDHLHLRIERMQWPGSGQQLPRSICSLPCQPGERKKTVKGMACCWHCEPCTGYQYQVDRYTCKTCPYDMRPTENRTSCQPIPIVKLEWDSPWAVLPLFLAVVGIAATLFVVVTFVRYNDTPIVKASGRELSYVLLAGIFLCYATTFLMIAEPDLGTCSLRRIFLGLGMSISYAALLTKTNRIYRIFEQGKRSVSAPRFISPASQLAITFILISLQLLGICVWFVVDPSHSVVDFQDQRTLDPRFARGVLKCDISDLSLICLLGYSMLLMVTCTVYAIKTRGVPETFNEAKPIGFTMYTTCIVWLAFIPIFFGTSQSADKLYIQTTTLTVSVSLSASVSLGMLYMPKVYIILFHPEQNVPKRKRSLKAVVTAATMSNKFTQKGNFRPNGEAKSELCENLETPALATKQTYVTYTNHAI
Protocol: as §1, §2

Row | Compound | Emax (human mGluR4) | EC50 (human mGluR4) | rGluMax (rat mGluR4; rat mGluR4/GIRK) | EC50 (rat mGluR4; EC50 for potentiation, rat mGluR4/GIRK, with EC20 concentration of agonist, read-out: rEC50) | EC50 (rat mGluR4)
1 | O=C(Nc1ccc(N2C(=O)CCC2=O)c(Cl)c1)c1cscn1 [Example 21, N-(3-chloro-4-(2,5-dioxopyrrolidin-1-yl)phenyl)thiazole-4-carboxamide] | 62% | 8660 nM | – | – | –
2 | O=C(Nc1ccc(N2C(=O)CC3(CCCCC3)C2=O)c(Cl)c1)c1ccccn1 [Example 15, N-(3-chloro-4-(1,3-dioxo-2-azaspiro[4.5]decan-2-yl)phenyl)picolinamide] | 139% | – | 86.1 | – | –
3 | O=C(Nc1ccc(N2C(=O)CCC2=O)c(Cl)c1)c1cccc(Cl)n1 [Example 18, 6-Chloro-N-(3-chloro-4-(2,5-dioxopyrrolidin-1-yl)phenyl)picolinamide] | 37% | 2550 nM | – | – | –
4 | O=C(Nc1ccc(N2C(=O)CC3(CCCCC3)CC2=O)c(Cl)c1)c1ccccn1 [Example 14, N-(3-chloro-4-(2,4-dioxo-3-azaspiro[5.5]undecan-3-yl)phenyl)picolinamide] | 193% | 163 nM | – | – | –
5 | O=C(Nc1ccc(N2C(=O)CCC2=O)c(Cl)c1)c1nccs1 [Example 20, N-(3-chloro-4-(2,5-dioxopyrrolidin-1-yl)phenyl)thiazole-2-carboxamide] | 69% | 7730 nM | – | – | –
6 | O=C(Nc1ccc(N2C(=O)CC(c3ccccc3)C2=O)c(Cl)c1)c1ccccn1 (centres unmarked) [Example 3, N-(3-chloro-4-(2,5-dioxo-3-phenylpyrrolidin-1-yl)phenyl)picolinamide] | 219% | – | 128.7 | – | 690 nM
7 | CC1(C)CC(=O)N(c2ccc(NC(=O)c3ccccn3)cc2Cl)C1=O [Example 5, N-(3-chloro-4-(3,3-dimethyl-2,5-dioxopyrrolidin-1-yl)phenyl)picolinamide] | 155% | 1810 nM | – | – | –
8 | O=C(Nc1ccc(N2C(=O)CCC2=O)c(Cl)c1)c1ccncn1 [Example 19, N-(3-chloro-4-(2,5-dioxopyrrolidin-1-yl)phenyl) pyrimidine-4-carboxamide] | 46% | 10000 nM | – | – | –
9 | O=C(Nc1ccc(N2C(=O)CCC2=O)c(Cl)c1)c1cccc(F)n1 [Example 17, N-(3-chloro-4-(2,5-dioxopyrrolidin-1-yl)phenyl)-6-fluoropicolinamide] | 40% | 3130 nM | – | – | –

Second part, led by results:

Row | Emax (human mGluR4) | EC50 (human mGluR4) | rGluMax (rat mGluR4; rat mGluR4/GIRK) | EC50 (rat mGluR4; EC50 for potentiation, rat mGluR4/GIRK, with EC20 concentration of agonist, read-out: rEC50) | Compound | EC50 (rat mGluR4)
10 | 88% | 329 nM | – | – | O=C(Nc1ccc(N2C(=O)CC(Cc3ccccc3Cl)(c3ccccc3)C2=O)c(Cl)c1)c1ccccn1 (centres unmarked) [Example 4, N-(3-chloro-4-(3-(2-chlorobenzyl)-2,5-dioxo-3-phenylpyrrolidin-1-yl)phenyl)picolinamide] | –
11 | 245% | – | – | – | CC1(c2ccccc2)CC(=O)N(c2ccc(NC(=O)c3ccccn3)cc2Cl)C1=O (centres unmarked) [Example 6, N-(3-chloro-4-(3-methyl-2,5-dioxo-3-phenylpyrrolidin-1-yl)phenyl)picolinamide] | –
12 | 276% | 254 nM | – | – | O=C(Nc1ccc(N2C(=O)C3=C(C2=O)c2ccccc2CC3)c(Cl)c1)c1ccccn1 [Example 12, N-(3-chloro-4-(1,3-dioxo-4,5-dihydro-1H-benzo[e]isoindol-2(3H)-yl)phenyl)picolinamide] | –
13 | 211% | – | 110.2 | – | O=C(Nc1ccc(N2C(=O)C3[C@H]4C=C[C@H](C4)[C@H]3C2=O)c(Cl)c1)c1ccccn1 (some centres unmarked) [Example 2] | –
14 | 64% | 1140 nM | – | – | O=C(Nc1ccc(N2C(=O)[C@H](c3ccccc3)[C@H](c3ccccc3)C2=O)c(Cl)c1)c1ccccn1 [Example 11, N-(3-chloro-4-((3R,4S)-2,5-dioxo-3,4-diphenylpyrrolidin-1-yl)phenyl)picolinamide] | –
15 | 215% | 574 nM | – | – | CC1CCC2C(=O)N(c3ccc(NC(=O)c4ccccn4)cc3Cl)C(=O)C2C1 (centres unmarked) [Example 10, N-(3-chloro-4-(5-methyl-1,3-dioxo-1H-isoindol-2(3H,3 aH,4H,5H,6H,7H,7aH)-yl)phenyl)picolinamide] | –
16 | 119% | 5940 nM | – | – | O=C(Nc1ccc(N2C(=O)CCC2=O)c(Cl)c1)c1ccccn1 [Example 16, N-(3-chloro-4-(2,5-dioxopyrrolidin-1-yl)phenyl)picolinamide] | –
17 | 209% | 1950 nM | – | – | O=C(Nc1ccc(N2C(=O)[C@H]3CC[C@H](c4ccccc4)C[C@H]3C2=O)c(Cl)c1)c1ccccn1 [Example 7] | –
18 | 189% | – | 123.3 | 680 nM | O=C(Nc1ccc(N2C(=O)[C@@H]3CCCC[C@H]3C2=O)c(Cl)c1)c1ccccn1 [Example 8, N-(3-chloro-4-((3aR,7aR)-1,3-dioxo-1H-isoindol-2(3H,3aH,4H,5H,6H,7H,7aH)-yl)phenyl)picolinamide] | –
19 | 256% | 118 nM | – | – | O=C(Nc1ccc(N2C(=O)Cc3ccccc3C2=O)c(Cl)c1)c1ccccn1 [Example 13, N-(3-chloro-4-(1,3-dioxo-3,4-dihydroisoquinolin-2(1H)-yl)phenyl)picolinamide] | –
20 | 222% | – | – | – | O=C(Nc1ccc(N2C(=O)[C@@H]3[C@H](C2=O)[C@@H]2C=C[C@H]3CC2)c(Cl)c1)c1ccccn1 [Example 1] | –
21 | 116% | – | – | – | O=C(Nc1ccc(N2C(=O)[C@H]3CCCC[C@H]3C2=O)c(Cl)c1)c1ccccn1 [Example 9, N-(3-chloro-4-((3aR,7aS)-1,3-dioxo-1H-isoindol-2(3H,3aH,4H,5H,6H,7H,7aH)-yl)phenyl)picolinamide] | –
